ChEMBL document CHEMBL1201862, “PubChem BioAssay data set” (2004)
The source made the active and inactive calls.

Legend:
[1] = Trypanosoma cruzi growth suppression in host cells – NIH3T3 host cells, beta-gal luminescence, confirmation (AID 2044); type: functional, cell-based;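 note: intracellular parasites grown in NIH/3T3 mouse fibroblasts as host cells; luminescent beta-galactosidase reporter signal from transgenic T. cruzi replicating inside host cells; inhibitors lower the luminescence signal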
[2] = NIH3T3 cell viability loss – ATP luminescence, mouse fibroblasts, counter-screen, dose response (AID 2010); type: functional, cell-based;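 note: cells exposed to compound for about 90 hours before reading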
[3] = THP-1 cell cytotoxicity, dose response, cytotoxicity control for non-replicating M. tuberculosis project (AID 489025); type: functional
[4] = HepG2 cell cytotoxicity, dose response, cytotoxicity control for non-replicating M. tuberculosis project (AID 489018); type: functional; settings: Mycobacterium tuberculosis
[5] = Vero E6 cell cytotoxicity, dose response, cytotoxicity control for non-replicating M. tuberculosis project, secondary assay (AID 492998); type: functional, VeroE6; settings: Vero C1008
Coagulation factor XII = molecular target: T1, Coagulation factor XII (Homo sapiens, UniProt P00748); type: functional;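 note: activated factor XIIa alpha cleaving a fluorogenic AMC peptide substrate; inhibitor potency from loss of enzyme activity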
T1 sequence (P00748 whole entry): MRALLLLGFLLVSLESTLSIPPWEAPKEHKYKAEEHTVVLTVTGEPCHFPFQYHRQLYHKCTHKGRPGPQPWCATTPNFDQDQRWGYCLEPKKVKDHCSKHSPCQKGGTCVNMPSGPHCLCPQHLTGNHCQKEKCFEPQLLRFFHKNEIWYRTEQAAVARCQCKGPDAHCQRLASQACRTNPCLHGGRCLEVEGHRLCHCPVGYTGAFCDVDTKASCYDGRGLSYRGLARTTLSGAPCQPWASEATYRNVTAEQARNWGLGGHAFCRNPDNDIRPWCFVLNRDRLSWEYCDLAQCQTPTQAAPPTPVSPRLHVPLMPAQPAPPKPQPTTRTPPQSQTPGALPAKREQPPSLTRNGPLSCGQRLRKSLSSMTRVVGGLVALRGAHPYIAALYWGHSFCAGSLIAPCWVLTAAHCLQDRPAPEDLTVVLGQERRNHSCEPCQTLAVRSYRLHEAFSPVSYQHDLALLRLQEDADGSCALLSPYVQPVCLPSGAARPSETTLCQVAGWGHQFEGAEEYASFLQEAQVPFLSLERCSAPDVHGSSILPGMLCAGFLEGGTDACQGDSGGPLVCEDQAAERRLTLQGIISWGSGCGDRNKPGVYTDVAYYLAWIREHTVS

Protein skinhead-1 = molecular target: T2, Protein skinhead-1 (Caenorhabditis elegans, UniProt P34707); type: functional
T2 sequence (P34707 whole entry): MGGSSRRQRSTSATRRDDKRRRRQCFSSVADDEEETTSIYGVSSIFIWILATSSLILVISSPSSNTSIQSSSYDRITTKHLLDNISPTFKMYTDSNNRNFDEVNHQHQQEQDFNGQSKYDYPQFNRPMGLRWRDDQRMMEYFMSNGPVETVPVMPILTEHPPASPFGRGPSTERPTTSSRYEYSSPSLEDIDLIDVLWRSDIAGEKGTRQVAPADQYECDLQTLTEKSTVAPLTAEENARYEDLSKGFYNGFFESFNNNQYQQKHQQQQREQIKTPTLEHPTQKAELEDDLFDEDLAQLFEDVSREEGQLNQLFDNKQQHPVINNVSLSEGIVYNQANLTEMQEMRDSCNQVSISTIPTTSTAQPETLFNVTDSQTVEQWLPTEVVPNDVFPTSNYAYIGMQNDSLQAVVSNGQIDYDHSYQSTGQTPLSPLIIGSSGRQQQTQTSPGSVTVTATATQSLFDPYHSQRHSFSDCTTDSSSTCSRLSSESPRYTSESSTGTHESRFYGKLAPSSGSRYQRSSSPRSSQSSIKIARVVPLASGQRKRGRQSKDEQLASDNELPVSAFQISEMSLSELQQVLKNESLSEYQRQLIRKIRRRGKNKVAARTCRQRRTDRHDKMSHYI

[6] = Luminescence Cell-Based Dose Response HTS to Identify Activators of Luciferase Translation or Activity in H4 […] Cells. [Related pubchem assays: 1829 (Project Summary), 1814 (Primary HTS)]; type: functional
H4 = test: Luminescence Cell-Based Dose Response HTS to Identify Activators of 5'UTR Stem-Loop Driven Prion Protein mRNA Translation in H4 Neuroglioblastoma Cells. [Related pubchem assays: 1829 (Project Summary), 1814 (Primary HTS)]; type: functional; settings: Homo sapiens
[7] = Luminescence Cell-Based Dose Confirmation HTS to Identify Activators of 5'UTR Stem-Loop Driven Alpha-Synuclein mRNA Translation in H4 Neuroglioblastoma Cells. [Related pubchem assays: 1829 (Project Summary), 1814 (Primary HTS)]; type: functional
[8] = Luminescence-based cell-based high throughput dose response assay to identify activators of the DAF-12 from the parasite S. stercoralis (ssDAF-12).; type: functional
[9] = Luminescence Cell-Based Dose Confirmation HTS to Identify Inhibitors of Platelet Dense Granule Release. [Related pubchem assays: 1663 (Primary HTS), 1678 (Summary of Project)]; type: functional
[10] = molecular target: T3, Luciferin 4-monooxygenase (Photinus pyralis, UniProt P08659); test: Counter Screen for Luciferase-based Assay Positives. [Related pubchem assays: 620, 618, 411 ]
HT-1080 = test: HT1080 cell viability loss – fluorescence readout (AID 620); type: functional, cell-based; settings: Homo sapiens
Prothrombin = Prothrombin (Homo sapiens, UniProt P00734); test: Thrombin 1536 HTS Dose Response Confirmation. [Related pubchem assays: 1046 (Thrombin 1536 HTS; hits were confirmed in this assay)]; type: functional
[11] = molecular target: T3, Luciferin 4-monooxygenase; test: inhibition of purified Photinus pyralis luciferase – biochemical, luminescence, dose response (AID 1891)
[12] = viability of uninfected HEp-2 cells – cell-based, HTS, cytotoxicity control for RSV inhibitor project, dose response (AID 2410); type: functional; settings: human respiratory syncytial virus
[13] = molecular target: Peroxisome proliferator-activated receptor gamma/Nuclear receptor coactivator 1 (Homo sapiens, UniProt P37231); test: TR-FRET dose response biochemical High Throughput Screening assay for agonists of the steroid receptor coactivator 1 (SRC-1) recruitment by the peroxisome proliferator-activated receptor gamma (PPAR gamma): non-selective agonists. [Related pubchem assays (depositor defined):AID1300, AID1808, AID504735, AID631]; type: protein assay
[14] = molecular target: Peroxisome proliferator-activated receptor gamma/Nuclear receptor coactivator 2 (Homo sapiens, UniProt P37231); test: (§1) TR-FRET dose response biochemical High Throughput Screening assay for agonists of the steroid receptor coactivator 2 (SRC-2) recruitment by the peroxisome proliferator-activated receptor gamma (PPAR gamma): non-selective agonists. [Related pubchem assays: 1297, 1032 ]; type: functional
[15] = molecular target: Peroxisome proliferator-activated receptor gamma/Nuclear receptor coactivator 3 (Homo sapiens, UniProt P37231); test: as §1, with “3 (SRC-3)” for “2 (SRC-2)”, “1301 (Confirmation screen.), 1048 (Primary screen.)]” for “1297, 1032 ]”; type: functional
[16] = HEK-293T cell viability reduction – luminescence, B-cell screen hits, cytotoxicity control for BCR NF-kB inhibitor project, dose response (AID 489021); type: functional, cell-based;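 note: HEK-293T cells carrying an NF-kB luciferase reporter; cells exposed to compound for about 14 hours before viability readout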
[17] = molecular target: Glyceraldehyde-3-phosphate dehydrogenase (Homo sapiens, UniProt P04406)
[18] = molecular target: T4, Alkaline phosphatase, tissue-nonspecific isozyme (Homo sapiens, UniProt P05186); test: potency against alkaline phosphatase TNAP – biochemical, luminescent, dose response, SAR follow-up (AID 1056)
T4 sequence (P05186 whole entry): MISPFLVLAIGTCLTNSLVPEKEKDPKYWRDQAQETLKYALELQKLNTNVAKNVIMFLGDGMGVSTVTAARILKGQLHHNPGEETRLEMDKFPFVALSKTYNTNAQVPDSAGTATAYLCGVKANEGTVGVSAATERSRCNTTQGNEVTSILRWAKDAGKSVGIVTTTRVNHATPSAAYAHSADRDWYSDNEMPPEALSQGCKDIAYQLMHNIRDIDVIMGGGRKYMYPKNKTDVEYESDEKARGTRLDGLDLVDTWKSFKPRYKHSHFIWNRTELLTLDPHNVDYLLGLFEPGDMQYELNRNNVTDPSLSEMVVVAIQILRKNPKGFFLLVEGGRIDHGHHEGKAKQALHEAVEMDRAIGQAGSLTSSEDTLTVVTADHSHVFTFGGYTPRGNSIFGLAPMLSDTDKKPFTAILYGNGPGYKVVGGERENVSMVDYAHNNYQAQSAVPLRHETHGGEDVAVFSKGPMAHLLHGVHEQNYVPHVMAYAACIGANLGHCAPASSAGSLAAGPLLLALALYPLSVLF

INS1 = test: INS-1E survival protection against cytokine death – cell-based, luminescence, retest, dose response (AID 449756); type: functional; settings: Rattus norvegicus;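 note: cell death triggered by IL-1 beta plus TNF-alpha plus IFN-gamma mixture; protective hits raise ATP signal compared with cytokine alone wells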
[19] = molecular target: Voltage-dependent T-type calcium channel subunit alpha-1H (Homo sapiens, UniProt O95180); type: functional;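 note: channel activity triggered by adding a high calcium stimulation buffer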
Aminopeptidase N = molecular target: T5, Aminopeptidase N (Plasmodium falciparum FcB1/Columbia, UniProt O96935); test: malaria alanyl aminopeptidase activity blockers – biochemical, fluorogenic H-Leu-NHMec substrate, 1536-well (AID 1445); set-up: species or system Plasmodium falciparum 3D7, 3D7
T5 sequence (O96935 whole entry): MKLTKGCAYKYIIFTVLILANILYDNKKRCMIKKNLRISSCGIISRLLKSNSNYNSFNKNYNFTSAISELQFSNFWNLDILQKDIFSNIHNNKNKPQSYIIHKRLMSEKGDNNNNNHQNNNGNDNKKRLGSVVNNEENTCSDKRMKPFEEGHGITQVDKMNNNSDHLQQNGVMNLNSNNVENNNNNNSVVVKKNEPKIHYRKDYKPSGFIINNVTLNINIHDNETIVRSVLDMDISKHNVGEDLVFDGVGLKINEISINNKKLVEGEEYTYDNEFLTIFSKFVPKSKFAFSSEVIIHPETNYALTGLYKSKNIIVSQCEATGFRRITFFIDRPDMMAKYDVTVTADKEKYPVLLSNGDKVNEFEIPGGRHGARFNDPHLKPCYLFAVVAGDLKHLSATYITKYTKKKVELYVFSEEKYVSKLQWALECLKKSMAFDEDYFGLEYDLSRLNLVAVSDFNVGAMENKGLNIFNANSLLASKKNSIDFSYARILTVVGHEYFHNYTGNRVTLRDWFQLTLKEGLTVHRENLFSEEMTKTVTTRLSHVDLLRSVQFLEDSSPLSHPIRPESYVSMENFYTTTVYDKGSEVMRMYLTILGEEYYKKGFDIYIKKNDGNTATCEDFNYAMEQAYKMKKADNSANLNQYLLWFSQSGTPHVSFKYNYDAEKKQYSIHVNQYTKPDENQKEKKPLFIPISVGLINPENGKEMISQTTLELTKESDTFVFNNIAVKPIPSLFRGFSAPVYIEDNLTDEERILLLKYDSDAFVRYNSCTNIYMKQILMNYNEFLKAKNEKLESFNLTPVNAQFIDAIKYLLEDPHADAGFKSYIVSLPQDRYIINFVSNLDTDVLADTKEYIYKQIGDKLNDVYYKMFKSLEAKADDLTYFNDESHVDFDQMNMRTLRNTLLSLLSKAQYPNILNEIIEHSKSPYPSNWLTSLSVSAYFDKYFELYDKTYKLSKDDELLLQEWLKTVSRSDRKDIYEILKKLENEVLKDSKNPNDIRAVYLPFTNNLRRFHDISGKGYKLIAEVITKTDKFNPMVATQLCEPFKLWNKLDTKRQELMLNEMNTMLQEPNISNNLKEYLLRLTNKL

Sequence of Glyceraldehyde-3-phosphate dehydrogenase (P04406 whole entry): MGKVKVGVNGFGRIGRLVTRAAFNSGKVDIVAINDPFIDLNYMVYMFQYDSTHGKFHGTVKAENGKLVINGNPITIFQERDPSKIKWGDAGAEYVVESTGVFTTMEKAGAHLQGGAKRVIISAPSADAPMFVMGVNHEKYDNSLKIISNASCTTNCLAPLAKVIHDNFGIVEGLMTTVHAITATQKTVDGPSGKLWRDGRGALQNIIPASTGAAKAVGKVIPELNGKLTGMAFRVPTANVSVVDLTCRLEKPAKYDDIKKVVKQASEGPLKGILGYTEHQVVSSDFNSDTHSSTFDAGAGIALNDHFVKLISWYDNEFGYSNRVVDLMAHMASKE
T3 sequence (P08659 whole entry): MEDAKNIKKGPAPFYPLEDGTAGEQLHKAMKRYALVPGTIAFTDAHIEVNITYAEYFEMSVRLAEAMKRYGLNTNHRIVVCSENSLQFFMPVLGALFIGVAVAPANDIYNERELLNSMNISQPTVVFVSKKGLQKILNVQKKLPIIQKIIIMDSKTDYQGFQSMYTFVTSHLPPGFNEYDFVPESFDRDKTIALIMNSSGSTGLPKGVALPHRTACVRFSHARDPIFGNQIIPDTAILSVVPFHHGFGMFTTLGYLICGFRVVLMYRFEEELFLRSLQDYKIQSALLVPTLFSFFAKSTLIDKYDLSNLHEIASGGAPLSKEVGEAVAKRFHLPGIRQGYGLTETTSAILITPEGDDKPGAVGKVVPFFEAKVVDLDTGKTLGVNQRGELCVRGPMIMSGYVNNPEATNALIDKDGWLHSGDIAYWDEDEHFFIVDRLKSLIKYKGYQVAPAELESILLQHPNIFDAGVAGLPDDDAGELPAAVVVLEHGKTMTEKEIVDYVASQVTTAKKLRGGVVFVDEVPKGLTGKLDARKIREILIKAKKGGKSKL
Sequence of Peroxisome proliferator-activated receptor gamma/Nuclear receptor coactivator 2 (P37231 whole entry): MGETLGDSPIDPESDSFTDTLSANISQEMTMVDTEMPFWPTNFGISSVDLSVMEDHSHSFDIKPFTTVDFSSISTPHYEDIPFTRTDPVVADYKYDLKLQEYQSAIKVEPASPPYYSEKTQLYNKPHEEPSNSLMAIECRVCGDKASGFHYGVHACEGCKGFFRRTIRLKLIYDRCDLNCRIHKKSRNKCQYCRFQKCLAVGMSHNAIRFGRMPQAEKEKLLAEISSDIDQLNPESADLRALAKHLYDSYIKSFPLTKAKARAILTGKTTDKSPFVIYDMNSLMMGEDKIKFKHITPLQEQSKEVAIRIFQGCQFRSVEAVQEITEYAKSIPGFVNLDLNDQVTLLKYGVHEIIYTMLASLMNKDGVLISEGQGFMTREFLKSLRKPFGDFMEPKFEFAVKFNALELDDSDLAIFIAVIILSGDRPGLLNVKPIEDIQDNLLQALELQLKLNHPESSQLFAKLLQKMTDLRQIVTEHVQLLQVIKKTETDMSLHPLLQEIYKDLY
Sequence of Peroxisome proliferator-activated receptor gamma/Nuclear receptor coactivator 2 (Q15596 whole entry, further chain): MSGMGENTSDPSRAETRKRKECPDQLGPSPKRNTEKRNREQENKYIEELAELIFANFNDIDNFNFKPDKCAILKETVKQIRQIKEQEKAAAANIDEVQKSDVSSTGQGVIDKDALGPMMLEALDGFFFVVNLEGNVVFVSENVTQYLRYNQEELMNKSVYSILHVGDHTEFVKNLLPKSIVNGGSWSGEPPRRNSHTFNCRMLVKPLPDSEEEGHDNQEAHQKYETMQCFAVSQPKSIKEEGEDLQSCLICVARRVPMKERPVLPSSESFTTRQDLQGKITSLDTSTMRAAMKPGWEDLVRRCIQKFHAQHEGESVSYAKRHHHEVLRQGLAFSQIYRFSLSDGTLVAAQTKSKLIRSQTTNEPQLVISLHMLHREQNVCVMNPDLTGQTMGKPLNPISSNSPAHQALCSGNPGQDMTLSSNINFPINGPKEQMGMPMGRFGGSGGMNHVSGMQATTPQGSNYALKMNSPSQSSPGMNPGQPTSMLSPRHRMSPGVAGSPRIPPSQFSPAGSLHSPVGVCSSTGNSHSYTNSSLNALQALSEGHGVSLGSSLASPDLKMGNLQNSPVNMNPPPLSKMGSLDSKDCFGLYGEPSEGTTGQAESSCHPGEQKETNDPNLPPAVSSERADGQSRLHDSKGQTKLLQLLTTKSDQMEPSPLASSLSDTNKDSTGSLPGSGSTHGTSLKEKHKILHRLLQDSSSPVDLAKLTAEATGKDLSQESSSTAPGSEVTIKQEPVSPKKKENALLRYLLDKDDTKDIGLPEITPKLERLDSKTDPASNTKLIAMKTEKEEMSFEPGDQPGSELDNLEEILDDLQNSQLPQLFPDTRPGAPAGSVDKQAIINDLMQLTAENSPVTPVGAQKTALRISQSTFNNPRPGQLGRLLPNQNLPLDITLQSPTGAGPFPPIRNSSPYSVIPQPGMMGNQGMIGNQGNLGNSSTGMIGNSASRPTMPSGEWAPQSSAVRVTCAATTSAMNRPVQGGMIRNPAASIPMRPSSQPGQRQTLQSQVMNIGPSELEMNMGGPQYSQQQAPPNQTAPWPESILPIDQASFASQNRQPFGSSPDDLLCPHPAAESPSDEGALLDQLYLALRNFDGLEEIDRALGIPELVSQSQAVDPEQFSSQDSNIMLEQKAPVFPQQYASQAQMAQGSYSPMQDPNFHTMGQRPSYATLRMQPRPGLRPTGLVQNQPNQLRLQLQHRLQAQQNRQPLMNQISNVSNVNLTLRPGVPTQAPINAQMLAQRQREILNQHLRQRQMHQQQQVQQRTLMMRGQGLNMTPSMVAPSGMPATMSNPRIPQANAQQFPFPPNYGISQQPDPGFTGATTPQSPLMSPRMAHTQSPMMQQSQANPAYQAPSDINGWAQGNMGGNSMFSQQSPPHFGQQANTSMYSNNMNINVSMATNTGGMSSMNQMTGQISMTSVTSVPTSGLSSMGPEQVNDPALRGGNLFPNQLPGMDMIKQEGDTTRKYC
Sequence of Peroxisome proliferator-activated receptor gamma/Nuclear receptor coactivator 1 (P37231 whole entry): as the sequence (P37231 whole entry) above
Sequence of Peroxisome proliferator-activated receptor gamma/Nuclear receptor coactivator 1 (Q15788 whole entry, further chain): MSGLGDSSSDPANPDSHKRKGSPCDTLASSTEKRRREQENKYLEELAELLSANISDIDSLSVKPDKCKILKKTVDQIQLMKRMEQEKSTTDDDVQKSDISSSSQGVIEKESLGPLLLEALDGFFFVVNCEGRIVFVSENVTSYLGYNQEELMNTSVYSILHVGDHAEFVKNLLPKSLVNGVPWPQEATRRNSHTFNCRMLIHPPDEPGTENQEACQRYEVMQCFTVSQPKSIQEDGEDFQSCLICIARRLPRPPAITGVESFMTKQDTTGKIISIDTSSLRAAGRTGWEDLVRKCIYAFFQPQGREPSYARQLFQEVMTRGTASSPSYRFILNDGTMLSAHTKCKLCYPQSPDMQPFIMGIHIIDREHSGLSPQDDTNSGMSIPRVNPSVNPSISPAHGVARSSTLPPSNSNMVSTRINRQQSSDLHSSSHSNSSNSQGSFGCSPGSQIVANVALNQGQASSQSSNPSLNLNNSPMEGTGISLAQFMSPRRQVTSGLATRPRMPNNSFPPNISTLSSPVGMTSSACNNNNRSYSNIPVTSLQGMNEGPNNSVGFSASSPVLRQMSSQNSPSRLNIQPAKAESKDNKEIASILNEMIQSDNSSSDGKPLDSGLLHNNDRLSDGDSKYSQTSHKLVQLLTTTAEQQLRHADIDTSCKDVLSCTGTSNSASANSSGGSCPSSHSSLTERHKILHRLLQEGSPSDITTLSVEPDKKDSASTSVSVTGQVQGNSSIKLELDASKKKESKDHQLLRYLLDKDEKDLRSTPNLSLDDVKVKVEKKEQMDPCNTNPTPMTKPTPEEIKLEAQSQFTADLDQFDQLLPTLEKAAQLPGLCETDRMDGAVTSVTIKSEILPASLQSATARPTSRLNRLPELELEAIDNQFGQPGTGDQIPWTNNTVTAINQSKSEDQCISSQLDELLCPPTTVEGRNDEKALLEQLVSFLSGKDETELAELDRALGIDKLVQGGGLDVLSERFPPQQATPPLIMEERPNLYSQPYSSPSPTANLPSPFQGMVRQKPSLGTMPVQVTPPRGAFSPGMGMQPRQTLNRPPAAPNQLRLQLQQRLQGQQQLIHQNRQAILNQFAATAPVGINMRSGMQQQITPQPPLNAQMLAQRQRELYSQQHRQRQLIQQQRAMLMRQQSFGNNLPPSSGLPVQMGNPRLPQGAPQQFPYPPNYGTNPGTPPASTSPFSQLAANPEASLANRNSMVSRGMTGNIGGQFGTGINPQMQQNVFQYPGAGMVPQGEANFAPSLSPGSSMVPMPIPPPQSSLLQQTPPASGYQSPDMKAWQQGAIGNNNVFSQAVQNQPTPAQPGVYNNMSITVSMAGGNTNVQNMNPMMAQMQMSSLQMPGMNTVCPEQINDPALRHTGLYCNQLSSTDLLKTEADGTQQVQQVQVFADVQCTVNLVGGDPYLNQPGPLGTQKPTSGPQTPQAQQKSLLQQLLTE

C/C(=N\NC(=O)c1ccc(CN2CCc3ccccc3C2)cc1)c1ccccc1O
EC50 [1]: 1.06 µM (active) | EC50 [2]: 3.88 µM (active) | CC50 [3]: 15.3 µM (active) | CC50 [4]: 10.7 µM (active) | CC50 [5]: 13.9 µM (active)

CS(=O)(=O)N(CC(=O)N/N=C/c1ccccc1C(=O)O)c1cccc(Cl)c1Cl
IC50 (Coagulation factor XII): > 50 µM (inactive)

O=C(Nc1nc(-c2ccc(Cl)s2)cs1)c1cccs1
IC50 (Protein skinhead-1): 81.2 µM (inactive) | EC50 [6]: 15.1 µM (active) | EC50 (H4): 5.03 µM (active) | IC50 (Coagulation factor XII): 23.9 µM (active) | EC50 [7]: 34.3 µM (active) | EC50 [1]: 1.04 µM (active) | EC50 [2]: 8.5 µM (active)

Oc1cccc(-c2nc3ccccc3s2)c1
IC50 [8]: > 67.6 µM (inactive) | EC50 [9]: 22.2 µM (active) | EC50 [10]: 12.4 µM (active) | EC50 (HT-1080): > 50 µM (not active) | IC50 (Prothrombin): > 50 µM (not active) | EC50 [11]: 1.83 µM (active)

O=C(Nc1ccc(C(F)(F)F)cc1[N+](=O)[O-])O[C@H]1[C@H](Cc2ccccc2)NS(=O)(=O)[C@H]2C[C@@H]3C=C[C@]12O3
IC50 (cells): 24.6 µM (active) | CC50 [12]: 23 µM (active)

Cn1c(=O)cc(SCC(=O)Nc2ccccn2)c2ccccc21
EC50 [13]: > 79.4 µM (inactive) | EC50 [14]: > 79.4 µM (not active) | EC50 [15]: > 79.4 µM (not active)

CCCCCCn1c(-c2ccco2)nc2oc3cc(OC)ccc3c(=O)c2c1=O
IC50 [16]: > 80 µM (inactive)

CN(C)C1=C(Cl)C(=O)N(c2nnc(Cc3ccccc3)[nH]2)C1=O
IC50 [17]: > 100 µM (not active) | IC50 [18]: 4.49 µM (active)

CCN1C(=O)c2cccc3c(S(=O)(=O)NCC4CCCO4)ccc1c23 (stereo unspecified)
IC50 [16]: > 80 µM (inactive)

O=C(Nc1ccc(OCC(=O)N2CCC(Cc3ccccc3)CC2)cc1)c1ccco1
AC50 (INS1): 5.93 µM (active) | EC50 [19]: 2.36 µM (active)

CCOC(=O)c1[nH]nc2c1COc1ccccc1-2
IC50 [17]: > 100 µM (not active) | IC50 [18]: > 100 µM (inactive)

Cc1ccc(CCNC(=O)C[S+]([O-])Cc2nc(-c3cccc(C)c3)oc2C)cc1 (stereo unspecified)
EC50 [19]: 4.04 µM (active)

O=C(/C=C\Nc1ccccn1)c1ccc(Cl)cc1
EC50 [10]: 2.45 µM (active) | EC50 (HT-1080): > 50 µM (not active)

CN1CCN(c2ncnc3c2cnn3-c2ccc(Cl)cc2)CC1
EC50 [10]: 0.55 µM (active) | EC50 (HT-1080): > 50 µM (not active)

Nc1ccc(-c2cc(C(=O)O)n[nH]2)cc1
IC50 [17]: > 100 µM (not active) | IC50 [18]: 8.69 µM (active)

COc1ccc(Nc2nnc(SC(C(=O)Nc3cc(C)ccc3C)c3ccccc3)s2)cc1 (stereo unspecified)
IC50 (Coagulation factor XII): > 50 µM (inactive)

COc1ccc(/C=C2/SC(=O)N(NS(=O)(=O)c3ccccc3)C2=S)cc1OC
IC50 (cells): 18.8 µM (active) | IC50 (Aminopeptidase N): 30.5 µM (active) | CC50 [12]: 31.5 µM (active)

Cc1cccc(Nc2nc(-c3ccccc3)c(C(=O)Nc3cccnc3)s2)c1
EC50 [13]: 7.34 µM (active) | EC50 [14]: 7.24 µM (active) | EC50 [15]: > 79.4 µM (not active)
